# Results taken from publication PMC5218480 (PLoS ONE, 2017).
# System: MV-4-11 cells
# Experiment: Gene expression microarray analysis (Affymetrix PrimeView) and GSEA
# Assay type: cell-based, human
# Design: RFU PODN (11730768_x_at) / Fold change /veh PODN (11730768_x_at) / RFU LINC00158 (11744669_a_at) / Fold change /veh LINC00158 (11744669_a_at) / RFU DUSP10 (11751237_a_at) / Fold change /veh DUSP10 (11751237_a_at) / RFU ID3 (11757404_x_at) / Fold change /veh ID3 (11757404_x_at) / RFU PLEKHG5 (11737974_s_at) / Fold change /veh PLEKHG5 (11737974_s_at) / RFU LRRC4B (11730491_at) / Fold change /veh LRRC4B (11730491_at) / RFU GIMAP4 (11747438_a_at) / Fold change /veh GIMAP4 (11747438_a_at) / RFU KRT8 (11758183_x_at) / Fold change /veh KRT8 (11758183_x_at) / RFU CNN1 (11734310_a_at) / Fold change /veh CNN1 (11734310_a_at) / RFU VPS37D (11726825_at) / Fold change /veh VPS37D (11726825_at) / RFU C10orf10 (11716522_x_at) / Fold change /veh C10orf10 (11716522_x_at) / RFU KIR2DL2 /// KIR2DL4 /// KIR2DL5A /// KIR2DL5B /// KIR2DS1 /// KIR2DS2 /// KIR2DS3 /// KIR2DS4 /// KIR3DL3 /// KIR3DL3 /// KIR3DS1 (11738374_at) / Fold change /veh KIR2DL2 /// KIR2DL4 /// KIR2DL5A /// KIR2DL5B /// KIR2DS1 /// KIR2DS2 /// KIR2DS3 /// KIR2DS4 /// KIR3DL3 /// KIR3DL3 /// KIR3DS1 (11738374_at) / RFU C1QL1 (11718748_at) / Fold change /veh C1QL1 (11718748_at) / RFU TMPRSS4 (11747572_a_at) / Fold change /veh TMPRSS4 (11747572_a_at) / RFU HAMP (11756126_x_at) / Fold change /veh HAMP (11756126_x_at) / RFU RNFT2 (11725882_a_at) / Fold change /veh RNFT2 (11725882_a_at) / RFU NR4A2 (11747474_a_at) / Fold change /veh NR4A2 (11747474_a_at) / RFU ABCC12 (11746883_a_at) / Fold change /veh ABCC12 (11746883_a_at) / RFU TMEM136 (11760407_x_at) / Fold change /veh TMEM136 (11760407_x_at) / RFU CLDN22 /// WWC2 (11732394_at) / Fold change /veh CLDN22 /// WWC2 (11732394_at) / RFU HLA-DPB1 (11760878_x_at) / Fold change /veh HLA-DPB1 (11760878_x_at) / RFU SPINT1 (11716480_a_at) / Fold change /veh SPINT1 (11716480_a_at) / RFU GAP43 (11754022_s_at) / Fold change /veh GAP43 (11754022_s_at) / RFU A4GNT (11735810_at) / Fold change /veh A4GNT (11735810_at) / RFU PRB3 (11715151_x_at) / Fold change /veh PRB3 (11715151_x_at) / RFU TUBB4B (11761932_at) / Fold change /veh TUBB4B (11761932_at) / RFU CAPN14 (11732068_a_at) / Fold change /veh CAPN14 (11732068_a_at) / RFU TMCC2 (11721928_a_at) / Fold change /veh TMCC2 (11721928_a_at) / RFU IRGQ (11745062_a_at) / Fold change /veh IRGQ (11745062_a_at) / RFU FAM174B (11720279_a_at) / Fold change /veh FAM174B (11720279_a_at) / RFU TMPRSS4 (11748680_a_at) / Fold change /veh TMPRSS4 (11748680_a_at) / RFU FAM212B (11763350_a_at) / Fold change /veh FAM212B (11763350_a_at) / RFU PLEKHG5 (11743358_a_at) / Fold change /veh PLEKHG5 (11743358_a_at) / RFU ZSCAN30 (11745921_a_at) / Fold change /veh ZSCAN30 (11745921_a_at) / RFU CMKLR1 (11741424_a_at) / Fold change /veh CMKLR1 (11741424_a_at) / RFU LOC101060620 /// MAPK8IP1 (11723275_at) / Fold change /veh LOC101060620 /// MAPK8IP1 (11723275_at) / RFU SPTSSB (11747773_x_at) / Fold change /veh SPTSSB (11747773_x_at) / RFU PRSS12 (11739890_at) / Fold change /veh PRSS12 (11739890_at) / RFU BIN1 (11741810_x_at) / Fold change /veh BIN1 (11741810_x_at) / RFU WNT11 (11732464_a_at) / Fold change /veh WNT11 (11732464_a_at) / RFU C10orf10 (11716521_a_at) / Fold change /veh C10orf10 (11716521_a_at) / RFU C5orf56 (11738089_at) / Fold change /veh C5orf56 (11738089_at) / RFU CYB561 (11721691_x_at) / Fold change /veh CYB561 (11721691_x_at) / RFU ANKRD19P (11752326_a_at) / Fold change /veh ANKRD19P (11752326_a_at) / RFU OR2T12 /// OR2T33 /// OR2T8 (11738714_s_at) / Fold change /veh OR2T12 /// OR2T33 /// OR2T8 (11738714_s_at) / RFU VCAN (11748164_a_at) / Fold change /veh VCAN (11748164_a_at) / RFU JSRP1 (11732532_at) / Fold change /veh JSRP1 (11732532_at) / RFU KRTAP10-11 (11738290_x_at) / Fold change /veh KRTAP10-11 (11738290_x_at) / RFU MYO3A (11730013_a_at) / Fold change /veh MYO3A (11730013_a_at) / RFU EBF3 (11725865_a_at) / Fold change /veh EBF3 (11725865_a_at) / RFU CAMK2N1 (11719241_x_at) / Fold change /veh CAMK2N1 (11719241_x_at) / RFU C5orf56 (11738088_a_at) / Fold change /veh C5orf56 (11738088_a_at) / RFU OLFML3 (11715873_a_at) / Fold change /veh OLFML3 (11715873_a_at) / RFU LOC100653217 /// NTM (11731650_a_at) / Fold change /veh LOC100653217 /// NTM (11731650_a_at) / RFU MAPK11 (11762145_a_at) / Fold change /veh MAPK11 (11762145_a_at) / RFU FIZ1 (11724087_x_at) / Fold change /veh FIZ1 (11724087_x_at) / RFU OASL (11726364_x_at) / Fold change /veh OASL (11726364_x_at) / RFU SOX15 (11748057_x_at) / Fold change /veh SOX15 (11748057_x_at) / RFU CD79A (11719716_a_at) / Fold change /veh CD79A (11719716_a_at) / RFU HIST1H1D (11736915_at) / Fold change /veh HIST1H1D (11736915_at) / RFU CASKIN2 (11723855_a_at) / Fold change /veh CASKIN2 (11723855_a_at) / RFU LOC730098 (11760151_x_at) / Fold change /veh LOC730098 (11760151_x_at) / RFU OR4N2 (11742367_at) / Fold change /veh OR4N2 (11742367_at) / RFU PRRT2 (11749266_a_at) / Fold change /veh PRRT2 (11749266_a_at) / RFU SNX32 (11753110_a_at) / Fold change /veh SNX32 (11753110_a_at) / RFU CDHR5 (11726645_a_at) / Fold change /veh CDHR5 (11726645_a_at) / RFU RCAN1 (11760418_a_at) / Fold change /veh RCAN1 (11760418_a_at) / RFU FAM167A (11723789_a_at) / Fold change /veh FAM167A (11723789_a_at) / RFU FAM26E (11764081_at) / Fold change /veh FAM26E (11764081_at) / RFU ISYNA1 (11749810_s_at) / Fold change /veh ISYNA1 (11749810_s_at) / RFU ACY1 (11761880_at) / Fold change /veh ACY1 (11761880_at) / RFU 11764098_at / Fold change /veh 11764098_at / RFU SAMD14 (11745864_x_at) / Fold change /veh SAMD14 (11745864_x_at) / RFU NPB (11741838_a_at) / Fold change /veh NPB (11741838_a_at) / RFU TMPRSS6 (11731388_a_at) / Fold change /veh TMPRSS6 (11731388_a_at) / RFU KRTAP10-2 (11738614_at) / Fold change /veh KRTAP10-2 (11738614_at) / RFU ARHGAP8 /// PRR5-ARHGAP8 (11727945_x_at) / Fold change /veh ARHGAP8 /// PRR5-ARHGAP8 (11727945_x_at) / RFU KRTAP5-7 /// NADSYN1 (11734609_at) / Fold change /veh KRTAP5-7 /// NADSYN1 (11734609_at) / RFU RASL12 (11751679_a_at) / Fold change /veh RASL12 (11751679_a_at) / RFU CDKN2B (11736163_a_at) / Fold change /veh CDKN2B (11736163_a_at) / RFU PRF1 (11729649_at) / Fold change /veh PRF1 (11729649_at) / RFU, ZNF638 /// ZNF638-IT1 / Fold change vs veh, ZNF638 /// ZNF638-IT1 / RFU, PANK3 / Fold change vs veh, PANK3 / RFU, SH3YL1 / Fold change vs veh, SH3YL1 / RFU, ZEB2 / Fold change vs veh, ZEB2 / RFU, NRIP1 / Fold change vs veh, NRIP1 / RFU, PTTG1IP / Fold change vs veh, PTTG1IP / RFU, CAPN2 / Fold change vs veh, CAPN2 / RFU, MED14 / Fold change vs veh, MED14 / RFU, SNORA58 / Fold change vs veh, SNORA58 / RFU, C1orf63 / Fold change vs veh, C1orf63 / RFU, LRRFIP1 / Fold change vs veh, LRRFIP1 / RFU, NDUFAF7 / Fold change vs veh, NDUFAF7 / RFU, SLC12A2 / Fold change vs veh, SLC12A2 / RFU, IBTK / Fold change vs veh, IBTK / RFU, ESF1 / Fold change vs veh, ESF1 / Fold change vs veh, TMEM50B / RFU, TAOK1 / Fold change vs veh, TAOK1 / RFU, ACBD3 / Fold change vs veh, ACBD3 / RFU, TMA16 / Fold change vs veh, TMA16 / RFU, RWDD3 / Fold change vs veh, RWDD3 / RFU, BCAT1 / Fold change vs veh, BCAT1 / RFU, EDEM3 / Fold change vs veh, EDEM3 / RFU, TMEM33 / Fold change vs veh, TMEM33 / RFU, WDR75 / Fold change vs veh, WDR75 / RFU, AHCTF1 / Fold change vs veh, AHCTF1 / RFU, TFRC / Fold change vs veh, TFRC / RFU, ZDHHC17 / Fold change vs veh, ZDHHC17 / RFU, NOM1 / Fold change vs veh, NOM1 / RFU, ARL8B / Fold change vs veh, ARL8B / RFU, ZBTB11 / Fold change vs veh, ZBTB11 / RFU, TAMM41 / Fold change vs veh, TAMM41 / RFU, KIAA1704 /// LOC100996395 / Fold change vs veh, KIAA1704 /// LOC100996395 / RFU, ING1 / Fold change vs veh, ING1 / RFU, TRMT61B / Fold change vs veh, TRMT61B / RFU, FUBP3 / Fold change vs veh, FUBP3 / RFU, TP53 / Fold change vs veh, TP53 / RFU, TNKS2 / Fold change vs veh, TNKS2 / RFU, ZFP14 / Fold change vs veh, ZFP14 / RFU, ACTR2 / Fold change vs veh, ACTR2 / RFU, PPP3R1 / Fold change vs veh, PPP3R1 / RFU, PIK3R1 / Fold change vs veh, PIK3R1 / RFU, HNRNPA1 / Fold change vs veh, HNRNPA1 / RFU, RNF170 / Fold change vs veh, RNF170 / RFU, ZNF28 / Fold change vs veh, ZNF28 / RFU, RNGTT / Fold change vs veh, RNGTT / RFU, OGT / Fold change vs veh, OGT / RFU, BRD1 / Fold change vs veh, BRD1 / RFU, MARS / Fold change vs veh, MARS / RFU, ZNF655 / Fold change vs veh, ZNF655 / RFU, FAHD1 / Fold change vs veh, FAHD1 / RFU, BDP1 / Fold change vs veh, BDP1 / RFU, LRRCC1 / Fold change vs veh, LRRCC1 / RFU, ARID1A / Fold change vs veh, ARID1A / RFU, ZNF146 / Fold change vs veh, ZNF146 / RFU, ZNF330 / Fold change vs veh, ZNF330 / RFU, GPN3 / Fold change vs veh, GPN3 / RFU, C9orf123 / Fold change vs veh, C9orf123 / RFU, N4BP2L2 / Fold change vs veh, N4BP2L2 / RFU, ARFIP1 / Fold change vs veh, ARFIP1 / RFU, FAM179B / Fold change vs veh, FAM179B / RFU, BCL10 / Fold change vs veh, BCL10 / RFU, UHRF1BP1L / Fold change vs veh, UHRF1BP1L / RFU, BET1 / Fold change vs veh, BET1 / RFU, CNOT2 / Fold change vs veh, CNOT2 / RFU, ZNF268 / Fold change vs veh, ZNF268 / Fold change vs veh, ZNF507 / RFU, DGCR2 / Fold change vs veh, DGCR2 / RFU, WDSUB1 / Fold change vs veh, WDSUB1 / Fold change vs veh, HSP90B1 /// MIR3652 / RFU, ADSS / Fold change vs veh, ADSS / RFU, GK / Fold change vs veh, GK / RFU, ZNF148 / Fold change vs veh, ZNF148 / RFU, TAF9 / Fold change vs veh, TAF9 / RFU, SLC1A5 / Fold change vs veh, SLC1A5 / RFU, SLMO2 / Fold change vs veh, SLMO2 / RFU, ABCC4 / Fold change vs veh, ABCC4 / RFU, LOC101060439 /// RAP1B / Fold change vs veh, LOC101060439 /// RAP1B / RFU, RFX7 / Fold change vs veh, RFX7 / RFU, GTPBP10 / Fold change vs veh, GTPBP10 / RFU, CNEP1R1 / Fold change vs veh, CNEP1R1 / RFU, BIVM-ERCC5 /// ERCC5 / Fold change vs veh, BIVM-ERCC5 /// ERCC5 / RFU, ILF3 / Fold change vs veh, ILF3 / RFU 11762660_at / Fold change /veh 11762660_at / RFU VCAN (11757783_s_at) / Fold change /veh VCAN (11757783_s_at) / RFU DDX43 (11728927_at) / Fold change /veh DDX43 (11728927_at) / RFU KRT8 (11758188_x_at) / Fold change /veh KRT8 (11758188_x_at) / RFU NKD1 (11759106_at) / Fold change /veh NKD1 (11759106_at) / RFU SRD5A1 (11742802_a_at) / Fold change /veh SRD5A1 (11742802_a_at) / RFU TPSAB1 /// TPSB2 (11721975_s_at) / Fold change /veh TPSAB1 /// TPSB2 (11721975_s_at) / RFU GSTM3 (11746129_a_at) / Fold change /veh GSTM3 (11746129_a_at) / RFU IL23R (11737362_x_at) / Fold change /veh IL23R (11737362_x_at) / RFU TMEM51 (11727254_a_at) / Fold change /veh TMEM51 (11727254_a_at) / RFU PIWIL2 (11732686_x_at) / Fold change /veh PIWIL2 (11732686_x_at) / RFU ORM1 (11744905_x_at) / Fold change /veh ORM1 (11744905_x_at) / RFU CCDC152 (11743942_at) / Fold change /veh CCDC152 (11743942_at) / RFU ECM1 (11717891_a_at) / Fold change /veh ECM1 (11717891_a_at) / RFU IL23R (11748794_a_at) / Fold change /veh IL23R (11748794_a_at) / RFU TNFAIP8L3 (11732012_x_at) / Fold change /veh TNFAIP8L3 (11732012_x_at) / RFU MBOAT4 (11741988_at) / Fold change /veh MBOAT4 (11741988_at) / RFU 11764193_at / Fold change /veh 11764193_at / RFU TMEM53 (11763286_at) / Fold change /veh TMEM53 (11763286_at) / RFU MAGEB2 (11727129_at) / Fold change /veh MAGEB2 (11727129_at) / RFU TMEM200A (11744735_a_at) / Fold change /veh TMEM200A (11744735_a_at) / RFU CCDC152 (11751479_a_at) / Fold change /veh CCDC152 (11751479_a_at) / RFU FAM211A (11726209_a_at) / Fold change /veh FAM211A (11726209_a_at) / RFU RGS16 (11746705_a_at) / Fold change /veh RGS16 (11746705_a_at) / RFU VCAN (11755009_s_at) / Fold change /veh VCAN (11755009_s_at) / RFU RHOB (11743442_s_at) / Fold change /veh RHOB (11743442_s_at) / RFU RGS16 (11720943_a_at) / Fold change /veh RGS16 (11720943_a_at) / RFU RGS16 (11720944_at) / Fold change /veh RGS16 (11720944_at) / RFU, VPS4B / Fold change vs veh, VPS4B / RFU, CREB1 / Fold change vs veh, CREB1 / RFU, DNAJC13 / Fold change vs veh, DNAJC13 / RFU, GNAQ / Fold change vs veh, GNAQ / RFU, CDK5R1 / Fold change vs veh, CDK5R1 / RFU, ZRANB3 / Fold change vs veh, ZRANB3 / RFU, CUL4A / Fold change vs veh, CUL4A / RFU, CCNY / Fold change vs veh, CCNY / RFU, UFL1 / Fold change vs veh, UFL1 / RFU, COG3 / Fold change vs veh, COG3 / RFU, DIAPH2 / Fold change vs veh, DIAPH2 / RFU, SKA2 / Fold change vs veh, SKA2 / RFU, AFF3 / Fold change vs veh, AFF3 / RFU, LMF1 / Fold change vs veh, LMF1 / RFU, IPO11 / Fold change vs veh, IPO11 / RFU, DFFB / Fold change vs veh, DFFB / RFU, FOXP1 / Fold change vs veh, FOXP1 / RFU, CARD8 / Fold change vs veh, CARD8 / RFU, STRN3 / Fold change vs veh, STRN3 / RFU, ADK / Fold change vs veh, ADK / RFU, RASSF2 / Fold change vs veh, RASSF2 / RFU, WIPF1 / Fold change vs veh, WIPF1 / RFU, LARP1B / Fold change vs veh, LARP1B / RFU, RASA1 / Fold change vs veh, RASA1 / RFU, RB1 / Fold change vs veh, RB1 / RFU, PPFIA1 / Fold change vs veh, PPFIA1 / RFU, MAT2A / Fold change vs veh, MAT2A / RFU, CCT5 / Fold change vs veh, CCT5 / RFU, WDR92 / Fold change vs veh, WDR92 / RFU, CUX1 / Fold change vs veh, CUX1 / RFU, TTC7A / Fold change vs veh, TTC7A / RFU, TMEM135 / Fold change vs veh, TMEM135 / RFU, DEPTOR / Fold change vs veh, DEPTOR / RFU, CPM / Fold change vs veh, CPM / RFU, DNAJB6 / Fold change vs veh, DNAJB6 / RFU, CACNA2D3 / Fold change vs veh, CACNA2D3 / RFU, DTX4 / Fold change vs veh, DTX4 / RFU, TFCP2 / Fold change vs veh, TFCP2 / RFU, GMCL1 /// GMCL1P1 / Fold change vs veh, GMCL1 /// GMCL1P1 / RFU, AEBP2 / Fold change vs veh, AEBP2 / RFU, SNHG1 /// SNORD22 /// SNORD25 /// SNORD26 /// SNORD27 /// SNORD28 /// SNORD29 /// SNORD31 / Fold change vs veh, SNHG1 /// SNORD22 /// SNORD25 /// SNORD26 /// SNORD27 /// SNORD28 /// SNORD29 /// SNORD31 / Fold change (Aza/veh), C12orf56 (ProbeSet 11735607_a_at) / Fold change (ACY-1035/veh), C12orf56 (ProbeSet 11735607_a_at) / Fold change (Aza/veh), FGFR1OP (ProbeSet 11751329_s_at) / Fold change (ACY-1035/veh), FGFR1OP (ProbeSet 11751329_s_at) / Fold change (Aza/veh), VPS36 (ProbeSet 11739960_a_at) / Fold change (ACY-1035/veh), VPS36 (ProbeSet 11739960_a_at) / RFU SYPL1 (11715823_x_at) / Fold change /veh SYPL1 (11715823_x_at) / RFU IGFBP7 (11715501_s_at) / Fold change /veh IGFBP7 (11715501_s_at) / RFU REEP3 (11722064_at) / Fold change /veh REEP3 (11722064_at) / RFU IGLL1 (11728026_x_at) / Fold change /veh IGLL1 (11728026_x_at): dose or concentration left out as unconfirmed
# Settings: MV-4-11 cells, 48 hours
structure (smiles),measurement,value
Nc1ccc(-c2cccs2)cc1NC(=O)c1ccc2c(c1)cc(C1CC1)n2CCN1CCOCC1 [ACY-1035],RFU TMEM53 (11763286_at),16.39 RFU
